Source: patent publication US7772271B2 (priority 2004, dated 2010)

| melting point | Structure (SMILES) |
| --- | --- |
| 120 to 122 °C | CCSc1ccc2c(C#N)c(-c3ccc(NC(=O)O[C@H](C)C4CC4)cc3)n(C3CCC3)c2c1 [compound 2720, (R)-[4-(3-cyano-1-cyclobutyl-6-ethylsulfanyl-1H-indol-2-yl)-phenyl]-carbamic acid 1-cyclopropyl-ethyl ester] |
| 290 to 292 °C | N#Cc1c(-c2ccc(N3CCCS3(=O)=O)cc2)n(C2CCC2)c2cc(N3CCOCC3)ccc12 [Compound 2914] |
| 227 to 229 °C | CCCS(=O)(=O)Nc1ccc(-c2c(C#N)c3ccc(Oc4nccnc4Cl)cc3n2C2CCC2)cc1 [Compound 2930] |
| 171 to 175 °C | CC(C)(C)OC(=O)NS(=O)(=O)Nc1ccc(-c2c(C#N)c3ccc(N4CCOCC4)cc3n2C2CC2)cc1 [Compound 3175] |
| 175 to 177 °C | N#Cc1c(-c2ccc(NCC3CCCCC3)cc2)n(C2CCC2)c2cc(OC3CCOCC3)ccc12 [Compound 3123] |
| 222 to 226 °C | CCCS(=O)(=O)Nc1ccc(-c2c(C#N)c3ccc(Oc4ncccc4C#N)cc3n2C2CC2)c(C)c1 [Compound 3304] |
| 149 to 152 °C | N#Cc1c(-c2ccc(N)cc2)n(C2CCC2)c2cc(Oc3nccc(N4CCOCC4)n3)ccc12 [Compound 3099] |
| 191 to 194 °C | N#Cc1c(-c2ccc(NS(=O)(=O)C3CC3)cc2)n(CC2CC2)c2cc(N3CCCCC3)ccc12 [Compound 2908] |
| 169 to 170 °C | COCCOc1ccc2c(C#N)c(-c3ccc(C(=O)N[C@H](C)c4ccc(F)cc4)cc3)n(C3CCC3)c2c1 [Compound 3132] |
| 200 to 202 °C | CCCS(=O)(=O)Nc1ccc(-c2c(C#N)c3cc(C(=O)N4CCCC4)ccc3n2C2CCC2)cc1 [Compound 3097] |
| 246 to 248 °C | CC(C)(C)c1csc(Nc2ccc(-c3c(C#N)c4ccc(OC5CCOCC5)cc4n3C3CCC3)cc2)n1 [Compound 3151] |
| 65 to 72 °C | CCOc1ccc2c(C#N)c(-c3ccc(NC(=O)OCCOCCOC)cc3)n(C3CCC3)c2c1 [compound 1424, [4-(3-cyano-1-cyclobutyl-6-ethoxy-1H-indol-2-yl)-phenyl]-carbamic acid 2-(2-methoxyethoxy)-ethyl ester] |
| 168 to 169 °C | N#Cc1c(-c2ccc(Oc3ncccn3)cc2)n(C2CCC2)c2cc(OC3CCOCC3)ccc12 [Compound 3167] |
| 225 °C (dec.) | Cc1noc(C)c1-c1ccc2c(C#N)c(-c3ccc(NC(=O)O[C@H](C)C4CC4)cc3)n(C3CCC3)c2c1 [Compound 3317] |
| 224 to 225 °C | CC(C)n1c(-c2ccc(NS(=O)(=O)Cc3ccc(C(F)(F)F)cc3)cc2)c(C#N)c2ccc(OC(F)F)cc21 [Compound 3178] |
| 173 to 190 °C | CC(C)OC(=O)Nc1ccc(-c2c(C#N)c3ccc(OC4CCS(=O)(=O)CC4)cc3n2C(C)C)cc1 [Compound 3236] |

| melting point | Structure (SMILES) |
| --- | --- |
| 110 to 113 °C | CCCS(=O)(=O)Nc1ccc(-c2c(C#N)c3ccc(Oc4ncccc4Br)cc3n2CC2CC2)c(C)c1 [Compound 3029] |
| 185 to 190 °C | CCOc1ccc2c(C#N)c(-c3ccc(NC(=O)OC4CCN(C(=O)OCCOC)CC4)cc3)n(C3CCC3)c2c1 [Compound 3073] |
| 192 to 194 °C | CCNC(=O)Oc1ccc2c(C#N)c(-c3ccc(NC(=O)O[C@H](C)C4CC4)cc3)n(C3CCC3)c2c1 [Compound 3170] |
| 269 to 271 °C | CS(=O)(=O)Nc1ccc(-c2c(C#N)c3ccc(N4CCOCC4)cc3n2C2CCC2)cc1 [Compound 2915] |
| 235 to 237 °C | CCCS(=O)(=O)Nc1ccc(-c2c(C#N)c3ccc(-c4ncccc4Cl)cc3n2C2CCC2)cc1 [Compound 2972] |
| 194 to 197 °C | CC(C)CS(=O)(=O)Nc1ccc(-c2c(C#N)c3ccc(Oc4nccnc4C#N)cc3n2CC2CC2)cc1 [Compound 3225] |
| 207 to 210 °C | COc1ccc(Nc2ccc(-c3c(C#N)c4ccc(OC5CCOCC5)cc4n3C3CCC3)cc2)cc1 [Compound 3128] |
| 193 to 196 °C | N#Cc1nccnc1Oc1ccc2c(C#N)c(-c3ccc(NS(=O)(=O)C4CC4)cc3)n(CC3CC3)c2c1 [Compound 3239] |
| 223 to 225 °C | CCCS(=O)(=O)Nc1ccc(-c2c(C#N)c3ccc(-c4ncccc4C#N)cc3n2C2CCC2)cc1 [Compound 3244] |
| 206 to 208 °C | CC(C)Nc1ccc(-c2c(C#N)c3ccc(Oc4ncccn4)cc3n2C2CCC2)cn1 [Compound 3312] |
| 159 to 161 °C | N#Cc1c(-c2ccc(NCC(F)F)cc2)n(C2CCC2)c2ccc(OCC(F)F)cc12 [Compound 3292] |
| 166 to 187 °C | CC(C)OC(=O)Nc1ccc(-c2c(C#N)c3ccc(OCS(C)(=O)=O)cc3n2C2CC2)cc1 [Compound 3052] |
| 209 to 213 °C | N#Cc1c(-c2ccc(Nc3ncccn3)cc2)n(C2CCC2)c2cc(OC3CCOCC3)ccc12 [Compound 3166] |
| 155 to 157 °C | C[C@H](NS(=O)(=O)Nc1ccc(-c2c(C#N)c3ccc(Oc4ncccc4F)cc3n2C2CCC2)cc1)C1CC1 [Compound 3018] |
| 108 to 115 °C | Cc1cc(NC(=O)O[C@H](C)C2CC2)ccc1-c1c(C#N)c2ccc(Oc3ncccc3C#N)cc2n1C1CCC1 [Compound 3333] |
| 248 to 250 °C | CC1(S(=O)(=O)Nc2ccc(-c3c(C#N)c4ccc(C(=O)N5CCOCC5)cc4n3C3CCC3)cc2)CC1 [Compound 2964] |

The remaining lines, values behind:

| Structure (SMILES) | melting point |
| --- | --- |
| CC[C@H](C)NS(=O)(=O)Nc1ccc(-c2c(C#N)c3ccc(OC4CCOCC4)cc3n2C2CCC2)cc1 [Compound 2835] | 196 to 198 °C |
| COCCOc1ccc2c(C#N)c(-c3ccc(NC(C4CC4)C4CC4)cc3)n(C(C)C)c2c1 [Compound 2671] | 148 to 150 °C |
| COCCOc1ccc2c(C#N)c(-c3ccc(C(=O)NC4CCCC4)cc3)n(C3CCC3)c2c1 [Compound 2758] | 194 to 196 °C |
| COCCOc1ccc2c(C#N)c(-c3ccc(NC(=O)OC(C)C)cc3)n(C(C)C)c2c1 [Compound 2608] | 153 to 155 °C |
| CCOc1ccc2c(C#N)c(-c3ccc(NC(=O)NCCN4CCOCC4)cc3)n(C3CCC3)c2c1 [Compound 1390] | 217 to 223 °C |
| CC(C)S(=O)(=O)Nc1ccc(-c2c(C#N)c3ccc(C(=O)N4CCOCC4)cc3n2C2CCC2)cc1 [Compound 2899] | 169 to 171 °C |
| CCN(CC)C(=O)c1ccc(-c2c(C#N)c3ccc(OCCOC)cc3n2C2CCC2)cc1 [Compound 2752] | 136 to 138 °C |
| N#Cc1c(-c2ccc(NC(=O)NC3CCC3)cc2)n(C2CC2)c2cc(N3CCOCC3)ccc12 [Compound 2858] | 230 to 232 °C |
| COCCOc1ccc2c(C#N)c(-c3ccc(C(=O)NCCN4CCOCC4)cc3)n(C3CCC3)c2c1 [Compound 2844] | 169 to 170 °C |
| CCC(C)NC(=O)c1ccc2c(C#N)c(-c3ccc(NC(=O)O[C@H](C)C4CC4)cc3)n(C3CCC3)c2c1 (stereo partly drawn) [Compound 2273] | 118 to 121 °C |
| COCCOc1ccc2c(C#N)c(-c3ccc(NC(=O)OC4CCOC4)cc3)n(C(C)C)c2c1 (stereo not drawn) [Compound 2610] | 181 to 183 °C |
| C[C@@H](OC(=O)Nc1ccc(-c2c(C#N)c3ccc(Oc4ncccn4)cc3n2C2CCC2)cc1)C(F)(F)F [Compound 2852] | 205 to 207 °C |
| CCOCCOc1ccc2c(C#N)c(-c3ccc(NC(=O)OC(C)C(F)(F)F)cc3)n(C3CCC3)c2c1 (stereo not drawn) [Compound 2636] | 122 to 124 °C |
| C[C@@H](OC(=O)Nc1ccc(-c2c(C#N)c3ccc(C(=O)N4CCCC4)cc3n2C2CCC2)cc1)C1CC1 [Compound 2788] | 124 to 127 °C |
| CCN(C)C(=O)c1ccc2c(C#N)c(-c3ccc(NC(=O)O[C@H](C)C4CC4)cc3)n(C3CCC3)c2c1 [Compound 2275] | 114 to 117 °C |
| CCCNC(=O)Nc1ccc(-c2c(C#N)c3ccc(OCc4csc(C)n4)cc3n2CC)cc1 [Compound 1415] | 220 to 222 °C |

| Structure (SMILES) | melting point |
| --- | --- |
| CC(NC(=O)Nc1ccc(-c2c(C#N)c3ccc(OC4CCOCC4)cc3n2C2CC2)cc1)c1ccc(F)cc1 (stereo not drawn) [Compound 2653] | 189 to 192 °C |
| CCOc1ccc2c(C#N)c(-c3ccc(NC(=O)O[C@@H](C)c4ccncc4)cc3)n(C3CCC3)c2c1 [Compound 2706] | 180 to 183 °C |
| CCn1ccnc1CCOc1ccc2c(C#N)c(-c3ccc(NC(=O)OC(C)C)cc3)n(C3CCC3)c2c1 [Compound 2842] | 203 to 212 °C |
| CCC(OC(=O)Nc1ccc(-c2c(C#N)c3ccc(OC4CCOC4)cc3n2C2CCC2)cc1)C(C)C (stereo not drawn) [Compound 1458] | 183 to 184 °C |
| Cc1cc(-c2c(C#N)c3ccc(OC4CCOCC4)cc3n2C2CCC2)ccc1NC(=O)OC(C)C [Compound 2889] | 129 to 130 °C |
| C[C@@H](OC(=O)Nc1ccc(-c2c(C#N)c3ccc(O[C@H]4CCOC4)cc3n2C2CCC2)cc1)C1CC1 [Compound 2703] | 166 to 168 °C |
| CC(C)NC(=O)Nc1ccc(-c2c(C#N)c3ccc(Oc4ccc(Cl)nn4)cc3n2C2CCC2)cc1 [Compound 2762] | 264 to 269 °C |
| CCCS(=O)(=O)Nc1ccc(-c2c(C#N)c3cc(OC4COCOC4)ccc3n2C2CCC2)cc1 [Compound 2776] | 183 to 184 °C |
| CCOCCOc1ccc2c(C#N)c(-c3ccc(NC(=O)OC(C)C)cc3)n(C3CCC3)c2c1 [Compound 2611] | 115 to 116 °C |
| N#Cc1c(-c2ccc(OC(=O)NC3CCCCC3)cc2)n(C2CCC2)c2cc(OC3CCOCC3)ccc12 [Compound 2812] | 187 to 188 °C |
| CC(OC(=O)Nc1ccc(-c2c(C#N)c3ccc(OC4CCOC4)cc3n2C2CCC2)cc1)C1CCCC1 (stereo not drawn) [Compound 1460] | 183 to 184 °C |
| CCCS(=O)(=O)Nc1ccc(-c2c(C#N)c3ccc(Oc4nccc(C)n4)cc3n2C2CCC2)cc1 [Compound 2902] | 223 to 227 °C |
| CCS(=O)(=O)Nc1ccc(-c2c(C#N)c3ccc(C(=O)N4CCOCC4)cc3n2C2CCC2)cc1 [Compound 2898] | 220 to 222 °C |
| N#Cc1c(-c2ccc(NS(=O)(=O)C3CC3)cc2)n(C2CCC2)c2cc(C(=O)N3CCSCC3)ccc12 [Compound 2826] | 205 to 207 °C |
| C[C@@H](OC(=O)Nc1ccc(-c2c(C#N)c3ccc(N4CCCCC4)cc3n2CC2CC2)cc1)C1CC1 [Compound 2907] | 127 to 132 °C |
